Assay results from patent publication US10232043B2, “Photoactivated molecules for light-induced modulation of the activity of electrically excitable cells and methods of using the same” (UNIVERSITY OF SOUTHERN CALIFORNIA, priority 2015, dated 2019).
“Also recorded” adds a separate entry of the source.

Assays:
HEK cells = assay: Membrane incorporation of Rubpy-C17 analogues; assay type: cell-based; details: FIGS. 6A-6C, 7A-7B
Description: In some examples, RubpyC17 can be changed to provide a non-toxic, faster, and highly reversible system that imparts light sensitivity in multiple biological systems. In some embodiments, changing of bipyridine substituents (as shown in as illustrated in FIG. 3) can result in a Ru^3+/2+ reduction potential dynamic range of several hundred millivolts. […] In some examples, the carboxylic acid substituents probe the mechanistic role of charge in the photovoltaic nanoswitch system in addition to the role of the reduction potential. FIGS. 5A-5D illustrates an embodiment of various substituents in place of RubpyC17 in HEK cells. For example, FIG. 5A illustrates TMbpyRubpyC17(PF6) substituted for RubpyC17; FIG. 5B illustrates TMbpyRubpyC17(Cl) substituted for RubpyC17; FIG. 5C illustrates COOHbpyRubpyC17(Na) substituted for RubpyC17; and FIG. 5C illustrates COOHbpyRubpyC17(tBu4N+) substituted for RubpyC17.
In some examples, the RubpyC17 molecule can be configured for non-specific targeting and optimized membrane incorporation of photoactive molecular artificial retinas (“MARs”).
In some embodiments, membrane incorporation can be an important characteristic of the current system. In some embodiments, changing the counter ion identity of Rubpy-C17 can help to change membrane incorporation properties. […] FIG. 7C illustrates the effect that a treatment of 1 μM of Rubpy-Oleic Acid has on HEK cells while FIG. 7D illustrates the effect that a treatment of 10 μM of Rubpy-Linoleic Acid has on HEK cells.

HEK293T cells = assay: Effect of PF6:Cl counter ion ratio of Rubpy-C17 on HEK293T cells; assay type: cell-based; details: for membrane incorporation: 10 minutes; for Comments (compound stability): degradation seen after two months
Experimental: In some embodiments, the 20 mg of Rubpy-C17 is stored in −20° C. with desiccant in the dark. […] 253 μl of DMSO is then added into the original bottle containing Rubpy-C17 to make 100 mM stock solution. In some embodiments, the stock solution is aliquot and stored in −20° C. with desiccant in the dark.
In some examples, on the day before or on, the same day of the experiment, the following 2.5 mM external solution is prepared using the following steps. The external solution is warmed up to 37° C. For […] of the external solution, 0.176 grams of absorbic acid was added. Another 240 μL 5M NaOH was added to adjust the pH to between about 7.2-7.4. The absorbic solution can then be filtered through a 0.2 μm filter. The solution is then stored in the dark in 4° C. In some examples, the solution must be used within one week.
The 100 mM of Rubpy solution is first thawed from −20° C. 100 mM Rubpy is then diluted to 10 mM Rubpy: 2 μL 100 mM Rubpy+18 μL DMSO. In some examples, this is vortexted to mix and then centrifuged down with a small bench-top. The culture, medium is aspirated and the cells are rinsed with external solution several times. The external solution can then be aspirated. In some examples, enough of the external solution is left on the cells to prevent it from drying. 500 μL of external solution with 2.5 mM of ascorbic acid can then be added.
In some examples, 1 μL of 10 mM of Rubpy to […] of external solution with 2.5 mM ascorbic acid and mixed well. This should produce a final concentration of 10 μM of Rubpy with 0.1% DMSO. This mixed solution is then added to the above referenced cells and incubated for 10 minutes.
The solution can then be aspirated from the plate and rinsed with regular external solution several times. 2 mL of external solution is added to 2.5 mM ascorbic acid for recording. For each plate, a baseline control is taken by recording the first cell before performing any light-stimulating protocol. The light-stimulus can include 10-40 s in duration and bandpassed at 455-495 nm (blue light).
As discussed above, the mixture a 10 μM of RubpyC17 solution was placed in 10 HEK293T cells.

[1] = Time-resolved luminescence and electron transfer of D-B-A complex; assay type: physicochemical; details: degassed dichloromethane, excited at 355 nm, monitored at 560 nm
Experimental: Time-resolved emission spectroscopy was used to characterize the MLCT excited state of the D-B-A complex (see FIGS. 24A and 24B). Luminescence decay kinetics were recorded in degassed dichloromethane. The D-B-A complex was excited at 355 nm with an 8-ns laser pulse and luminescence was monitored at 560 nm. […] For comparison, the MLCT lifetime of the reference complex, [Re(CO)3(bpy)(py)]+, determined under identical experimental conditions, is 550 ns.
Self-association often leads to enhanced quenching, due to the formation of aggregates with short intermolecular donor-acceptor distances.
While the rate of intramolecular electron transfer is concentration independent, intermolecular quenching processes vary predictably with concentration. As such, it is possible to separate the two quenching mechanisms and obtain rate constants for each. Time-resolved luminescence measurements at a series of D-B-A concentrations allow a second order intermolecular quenching rate to be determined. As the concentration was increased, shorter lifetimes were recorded in both dichloromethane and acetonitrile. […]
Intramolecular electron transfer may also proceed through a through-space coupling mechanism. […] If β values in this range are used, the through-solvent intramolecular electron transfer rate is predicted to fall between 10^4 and 10^6 s^−1, which is competitive with calculated through-bond tunneling rates.

chromaffin cells = assay: Cell-attached patch test for membrane perforation; assay type: cell-based, mouse; details: in patch pipette, RubpyC17 18 μM, 10 min, amphotericin B within 5 min
Description: FIGS. 21A-21H depict data from various experiments related to characteristics of RubpyC17-loaded cells. […] Inset images shown to the right of trace confirmed proper integration of RubpyC17 in patched cells. FIGS. 21C-21E show the light-induced action potential firing in chromaffin cells was not due to biophysical changes in voltage-gated ion channels as there were no significant changes in current-voltage relationships (21C-21D) nor in steady-state activation curve (21E) in RubpyC17-loaded chromaffin cells before (open circle) or during (open circle) light illumination. […] Peak inward currents from each stimulation jump were plotted against corresponding stimulating voltages (n=6). […] Data from representative cell is shown (n=5). […] Currents resulting from capacitor-like behavior of chromaffin cell membranes during hyperpolarizing jumps to −85 mV from a resting membrane potential of −80 mV were recorded 5 min following giga-seal formation for amphoterecin B (bottom trace) or 10 min following giga-seal formation for RubpyC17 (top trace).
Finally, to test whether illumination of RubpyC17 incorporated in cell membranes causes nonspecific membrane poration or other damage, 18 μM RubpyC17 was loaded inside a patch pipette and attached to a cell (gigaseal formation) in the cell-attached configuration. This is the same configuration used routinely for perforated-patch recording. […]

Nav1.6 = Nav1.6 (Homo sapiens, UniProt Q9UQD0); details: extracellular loop S1-S2 and S3-S4 in domain II; cited from earlier work
Sequence of Nav1.6 (Q9UQD0 whole entry, the tested form may be a part): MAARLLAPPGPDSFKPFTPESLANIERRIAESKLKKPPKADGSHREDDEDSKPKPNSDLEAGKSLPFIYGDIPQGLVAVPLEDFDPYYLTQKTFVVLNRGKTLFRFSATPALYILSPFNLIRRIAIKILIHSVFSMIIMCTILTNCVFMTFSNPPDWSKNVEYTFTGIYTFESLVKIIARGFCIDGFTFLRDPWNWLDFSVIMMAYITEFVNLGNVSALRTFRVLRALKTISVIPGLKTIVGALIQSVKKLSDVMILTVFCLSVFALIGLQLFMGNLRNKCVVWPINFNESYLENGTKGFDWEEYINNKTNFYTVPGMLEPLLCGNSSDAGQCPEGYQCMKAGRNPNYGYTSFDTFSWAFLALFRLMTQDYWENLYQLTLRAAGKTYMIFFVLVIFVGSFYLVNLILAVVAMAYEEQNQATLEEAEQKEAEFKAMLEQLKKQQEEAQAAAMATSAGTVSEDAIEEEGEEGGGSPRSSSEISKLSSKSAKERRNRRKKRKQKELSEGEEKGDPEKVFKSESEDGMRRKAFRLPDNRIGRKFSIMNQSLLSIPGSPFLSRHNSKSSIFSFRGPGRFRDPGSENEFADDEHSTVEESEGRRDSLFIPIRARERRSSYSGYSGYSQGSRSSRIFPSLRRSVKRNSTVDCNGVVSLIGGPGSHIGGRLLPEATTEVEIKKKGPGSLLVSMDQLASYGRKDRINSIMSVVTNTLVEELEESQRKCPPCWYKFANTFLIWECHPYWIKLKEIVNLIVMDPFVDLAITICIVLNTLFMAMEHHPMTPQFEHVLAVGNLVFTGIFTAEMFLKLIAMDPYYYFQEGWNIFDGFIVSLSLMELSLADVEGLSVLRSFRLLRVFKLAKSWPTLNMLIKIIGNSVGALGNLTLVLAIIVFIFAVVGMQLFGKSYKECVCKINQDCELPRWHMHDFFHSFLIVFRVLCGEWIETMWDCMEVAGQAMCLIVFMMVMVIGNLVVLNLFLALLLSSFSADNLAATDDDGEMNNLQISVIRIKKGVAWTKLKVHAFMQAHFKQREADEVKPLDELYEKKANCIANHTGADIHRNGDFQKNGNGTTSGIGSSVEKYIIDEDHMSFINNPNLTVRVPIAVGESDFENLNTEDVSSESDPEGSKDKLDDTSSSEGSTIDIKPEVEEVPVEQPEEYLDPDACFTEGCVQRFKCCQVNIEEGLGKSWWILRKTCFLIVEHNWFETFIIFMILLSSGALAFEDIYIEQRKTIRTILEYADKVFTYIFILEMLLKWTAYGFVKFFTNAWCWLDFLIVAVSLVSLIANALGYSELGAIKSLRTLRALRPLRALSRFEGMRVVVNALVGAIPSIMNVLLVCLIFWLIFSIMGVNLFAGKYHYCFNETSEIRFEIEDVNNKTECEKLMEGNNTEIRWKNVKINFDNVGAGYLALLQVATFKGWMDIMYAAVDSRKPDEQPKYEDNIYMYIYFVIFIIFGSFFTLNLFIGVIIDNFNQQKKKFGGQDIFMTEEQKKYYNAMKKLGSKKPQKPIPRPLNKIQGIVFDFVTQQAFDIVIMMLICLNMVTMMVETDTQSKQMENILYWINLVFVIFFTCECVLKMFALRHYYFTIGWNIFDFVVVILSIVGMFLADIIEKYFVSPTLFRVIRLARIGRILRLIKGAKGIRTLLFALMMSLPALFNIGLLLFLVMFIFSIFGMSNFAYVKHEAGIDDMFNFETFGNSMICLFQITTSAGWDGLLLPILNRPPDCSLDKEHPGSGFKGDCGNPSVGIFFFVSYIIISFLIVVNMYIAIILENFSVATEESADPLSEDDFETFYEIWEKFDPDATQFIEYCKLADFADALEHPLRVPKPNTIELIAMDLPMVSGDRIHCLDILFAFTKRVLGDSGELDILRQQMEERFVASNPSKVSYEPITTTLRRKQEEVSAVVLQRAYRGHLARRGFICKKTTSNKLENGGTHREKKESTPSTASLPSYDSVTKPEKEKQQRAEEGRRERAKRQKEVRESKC

Question: What does the source list for `CCCCCCCCCCCCCCCCCc1ccnc(-c2cc(C)ccn2)c1.[Cl-].[Cl-].[Ru+2].c1ccc(-c2ccccn2)nc1.c1ccc(-c2ccccn2)nc1` [PF6:Cl 0:1]?
Answer: membrane incorporation (HEK cells): exceptional membrane incorporation; Cell Death (HEK293T cells; 10 μM, HEK293T cells): cell death was observed; membrane incorporation (HEK293T cells; 10 μM, HEK293T cells): even incorporation; membrane incorporation (HEK293T cells; 10 μM, HEK293T cells, listed as Rubpy-C17 with only CL Counter ions): good membrane incorporation was initially observed; Comments (compound stability) (HEK293T cells): subsequent degradation was observed after two months; also recorded: Unstable,; Comments (compound stability) (HEK293T cells; listed as Rubpy-C17 with only CL Counter ions): compound degradation was seen subsequently after two months

Question: Which membrane incorporation (HEK cells) does the source give for `CCCCCCCC/C=C\CCCCCCCC(=O)Nc1cc2cccnc2c2ncccc12.[Ru+2].c1ccc(-c2ccccn2)nc1.c1ccc(-c2ccccn2)nc1` [Ruphen-C18:1] here?
Answer: exceptional membrane incorporation; also recorded: excellent membrane incorporation

Question: Which membrane incorporation (HEK cells) does the source give for `CCCCC/C=C\C/C=C\CCCCCCCC(=O)Nc1cc2cccnc2c2ncccc12.[Ru+2].c1ccc(-c2ccccn2)nc1.c1ccc(-c2ccccn2)nc1` [Ruphen-C18:2] here?
Answer: excellent membrane incorporation

Question: Which “luminescence (MLCT) lifetime” value [1] does the source give for `[C-]#[O+].[C-]#[O+].[C-]#[O+].[Re+].c1ccc(-c2ccccn2)nc1.c1ccncc1` [[Re(CO)3(bpy)(py)]+] here?
Answer: 550 ns

Question: Which “capacitive charging transient (membrane perforation)” value (chromaffin cells) does the source give for `C[C@@H]1[C@H](O)[C@@H](C)/C=C/C=C/C=C/C=C/C=C/C=C/C=C/[C@H](O[C@@H]2O[C@H](C)[C@@H](O)[C@H](N)[C@@H]2O)C[C@@H]2O[C@](O)(C[C@@H](O)C[C@@H](O)[C@H](O)CC[C@@H](O)C[C@@H](O)CC(=O)O[C@H]1C)C[C@H](O)[C@H]2C(=O)O` [amphotericin B, reference compound] here?
Answer: sizable capacitive charging transient

Question: For `CCCCCCCCCCCCCCCCCc1ccnc(-c2cc(C)ccn2)c1.Cc1cnc(-c2cc(C)c(C)cn2)cc1C.Cc1cnc(-c2cc(C)c(C)cn2)cc1C.[Ru+2]` [tetramethyl-substituted bpy Rubpy-C17], which membrane incorporation (HEK cells) is on record?
Answer: does not evenly incorporate

Question: With CssII as the compound, how does the binding affinity (Nav1.6) read?
Answer: nanomolar affinity
